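Tested at 5 concentrations; 48 h exposure; 96-well plates; endpoints linearly interpolated, else capped at highest concentration. GI50 is the concentration that inhibits growth by half. TGI denotes the concentration required for complete inhibition of growth.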
Experiments:
Assay in all cases: NCI tumour cell line growth inhibition, 48 h
HT29 colon = tested on: HT29 colon
DU-145 prostate = tested on: DU-145 prostate
SK-MEL-2 melanoma = tested on: SK-MEL-2 melanoma
CAKI-1 renal = tested on: CAKI-1 renal
SNB-75 CNS = tested on: SNB-75 CNS
SF-295 CNS = tested on: SF-295 CNS
MCF7 breast = tested on: MCF7 breast
SNB-19 CNS = tested on: SNB-19 CNS
T-47D breast = tested on: T-47D breast
IGROV1 ovarian = tested on: IGROV1 ovarian
A498 renal = tested on: A498 renal
SN12C renal = tested on: SN12C renal
RXF 393 renal = tested on: RXF 393 renal
HCC-2998 colon = tested on: HCC-2998 colon
EKVX NSCLC = tested on: EKVX NSCLC
K-562 leukemia = tested on: K-562 leukemia
SK-MEL-28 melanoma = tested on: SK-MEL-28 melanoma
PC-3 prostate = tested on: PC-3 prostate
HCT-15 colon = tested on: HCT-15 colon
HS 578T breast = tested on: HS 578T breast
SK-MEL-5 melanoma = tested on: SK-MEL-5 melanoma
MDA-MB-231 breast = tested on: MDA-MB-231 breast
HOP-62 NSCLC = tested on: HOP-62 NSCLC
LOX IMVI melanoma = tested on: LOX IMVI melanoma
NCI-H522 lung = tested on: NCI-H522 lung
HL-60(TB) leukemia = tested on: HL-60(TB) leukemia
U251 CNS = tested on: U251 CNS
MOLT-4 leukemia = tested on: MOLT-4 leukemia
OVCAR-3 ovarian = tested on: OVCAR-3 ovarian
SK-OV-3 ovarian = tested on: SK-OV-3 ovarian
A549 NSCLC = tested on: A549 NSCLC
OVCAR-5 ovarian = tested on: OVCAR-5 ovarian
SF-268 CNS = tested on: SF-268 CNS
HCT-116 colon = tested on: HCT-116 colon
ACHN renal = tested on: ACHN renal
SF-539 CNS = tested on: SF-539 CNS
UACC-62 melanoma = tested on: UACC-62 melanoma
OVCAR-4 ovarian = tested on: OVCAR-4 ovarian
COLO 205 colon = tested on: COLO 205 colon
MDA-MB-468 breast = tested on: MDA-MB-468 breast
SR leukemia = tested on: SR leukemia
MALME-3M melanoma = tested on: MALME-3M melanoma
HOP-92 NSCLC = tested on: HOP-92 NSCLC
NCI-H226 lung = tested on: NCI-H226 lung
TK-10 renal = tested on: TK-10 renal
M14 melanoma = tested on: M14 melanoma
KM12 colon = tested on: KM12 colon
NCI/ADR-RES ovarian = tested on: NCI/ADR-RES ovarian
786-0 renal = tested on: 786-0 renal
NCI-H460 lung = tested on: NCI-H460 lung
CCRF-CEM leukemia = tested on: CCRF-CEM leukemia
BT-549 breast = tested on: BT-549 breast
RPMI-8226 leukemia = tested on: RPMI-8226 leukemia
UACC-257 melanoma = tested on: UACC-257 melanoma
MDA-MB-435 = tested on: MDA-MB-435
SW-620 colon = tested on: SW-620 colon
UO-31 renal = tested on: UO-31 renal
NCI-H23 lung = tested on: NCI-H23 lung
OVCAR-8 ovarian = tested on: OVCAR-8 ovarian

## C#CCN(C)CCCOc1ccc(N(CC)C(=O)c2cc(C(C)C)c(O)cc2O)cc1Cl
HT29 colon
  GI50: 2970 nM
  TGI: 13100 nM
DU-145 prostate
  GI50: 59.5 nM
  TGI: 15300 nM
SK-MEL-2 melanoma
  GI50: 979 nM
  TGI: 15500 nM
CAKI-1 renal
  GI50: 350 nM
  TGI: 14600 nM
SNB-75 CNS
  GI50: 947 nM
  TGI: 16100 nM
SF-295 CNS
  GI50: 384 nM
  TGI: 12600 nM
MCF7 breast
  GI50: 56.1 nM
  TGI: 13700 nM
SNB-19 CNS
  GI50: 430 nM
  TGI: 13400 nM
T-47D breast
  GI50: 88.8 nM
  TGI: 11900 nM
IGROV1 ovarian
  GI50: 193 nM
  TGI: 13600 nM
A498 renal
  GI50: 679 nM
  TGI: 15500 nM
SN12C renal
  GI50: 105 nM
  TGI: 8280 nM
RXF 393 renal
  GI50: 917 nM
  TGI: 12500 nM
HCC-2998 colon
  GI50: 273 nM
  TGI: 1910 nM
EKVX NSCLC
  GI50: 484 nM
  TGI: 8530 nM
K-562 leukemia
  GI50: 91.4 nM
  TGI: 23000 nM
SK-MEL-28 melanoma
  GI50: 413 nM
  TGI: 12700 nM
PC-3 prostate
  GI50: 232 nM
  TGI: 14700 nM
HCT-15 colon
  GI50: 94.8 nM
  TGI: 12200 nM
HS 578T breast
  GI50: 1560 nM
  TGI: 21100 nM
SK-MEL-5 melanoma
  GI50: 397 nM
  TGI: 1790 nM
MDA-MB-231 breast
  GI50: 230 nM
  TGI: 2750 nM
HOP-62 NSCLC
  GI50: 400 nM
  TGI: 19000 nM
LOX IMVI melanoma
  GI50: 139 nM
  TGI: 359 nM
NCI-H522 lung
  GI50: 121 nM
  TGI: 5480 nM
HL-60(TB) leukemia
  GI50: 73 nM
  TGI: 2720 nM
U251 CNS
  GI50: 399 nM
  TGI: 15100 nM
MOLT-4 leukemia
  GI50: 139 nM
  TGI: 13200 nM
OVCAR-3 ovarian
  GI50: 595 nM
  TGI: 14900 nM
SK-OV-3 ovarian
  GI50: 52.1 nM
  TGI: 12400 nM
A549 NSCLC
  GI50: 146 nM
  TGI: 15000 nM
OVCAR-5 ovarian
  GI50: 482 nM
  TGI: 16000 nM
SF-268 CNS
  GI50: 1660 nM
  TGI: 23900 nM
HCT-116 colon
  GI50: 138 nM
  TGI: 13300 nM
ACHN renal
  GI50: 105 nM
  TGI: 12700 nM
SF-539 CNS
  GI50: 361 nM
  TGI: 12800 nM
UACC-62 melanoma
  GI50: 174 nM
  TGI: 793 nM
OVCAR-4 ovarian
  GI50: 1630 nM
  TGI: 19400 nM
COLO 205 colon
  GI50: 3080 nM
  TGI: 13400 nM
MDA-MB-468 breast
  GI50: 115 nM
  TGI: 462 nM
SR leukemia
  GI50: 48.3 nM
  TGI: 8500 nM
MALME-3M melanoma
  GI50: 207 nM
  TGI: 1580 nM
HOP-92 NSCLC
  GI50: 446 nM
  TGI: 2700 nM
NCI-H226 lung
  GI50: 604 nM
  TGI: 17900 nM
TK-10 renal
  GI50: 195 nM
  TGI: 12300 nM
M14 melanoma
  GI50: 462 nM
  TGI: 13000 nM
KM12 colon
  GI50: 111 nM
  TGI: 10500 nM
NCI/ADR-RES ovarian
  GI50: 339 nM
  TGI: 7320 nM
786-0 renal
  GI50: 1370 nM
  TGI: 17400 nM
NCI-H460 lung
  GI50: 68.7 nM
  TGI: 10900 nM
CCRF-CEM leukemia
  GI50: 85.7 nM
  TGI: 13300 nM
BT-549 breast
  GI50: 1750 nM
  TGI: 14300 nM
RPMI-8226 leukemia
  GI50: 294 nM
  TGI: 3170 nM
UACC-257 melanoma
  GI50: 434 nM
  TGI: 11400 nM
MDA-MB-435
  GI50: 174 nM
  TGI: 12000 nM
SW-620 colon
  GI50: 192 nM
  TGI: 13800 nM
UO-31 renal
  GI50: 156 nM
  TGI: 13200 nM
NCI-H23 lung
  GI50: 346 nM
  TGI: 13900 nM
OVCAR-8 ovarian
  GI50: 219 nM
  TGI: 15600 nM

— PubChem BioAssay (NCI)
